For one cell line, relative viability results are on record in the supplement of paper PMC10307832.

Assay in all cases: relative viability (nuclei count vs DMSO), 5 days (fraction); higher = more cells survive
Compound in assay [1]: CC1=CC=C(C=C1)C(=O)CN2C3=C(CCCC3)SC2=N [Pifithrin_alpha] + CC(=O)Nc1cccc(-n2c(=O)n(C3CC3)c(=O)c3c(Nc4ccc(I)cc4F)n(C)c(=O)c(C)c32)c1 [Trametinib] (partner 0.02 µM)
The essentials:
(§1)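 Relative viability is defined as nuclei in treated wells over nuclei in vehicle wells. Duplicate plates were run and medians reported. Lung cancer cell lines in 1536-well plates were dosed by pin tool one day after seeding, with one drug or with a fixed anchor-drug dose plus five library-drug doses (not always all listed) in √10 steps, and nuclei were counted after 5 days.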

Compound in assay [2]: CC1=CC=C(C=C1)C(=O)CN2C3=C(CCCC3)SC2=N [Pifithrin_alpha] + COc1cccc2cc(-c3nc([C@H]4CC[C@H](C(=O)O)CC4)n4ncnc(N)c34)[nH]c12 [OSI-027] (partner 0.5 µM)
The essentials: as §1

Compound in assay [3]: CC1=CC=C(C=C1)C(=O)CN2C3=C(CCCC3)SC2=N [Pifithrin_alpha] + O=C(CCCCCCC(=O)Nc1ccccc1)NO [Vorinostat] (partner 1 µM)
The gist of the method: as §1

Compound in the assay “Bemcentinib + Tozasertib”: Nc1nc(Nc2ccc3c(c2)CC[C@@H](N2CCCC2)CC3)nn1-c1cc2c(nn1)-c1ccccc1CCC2 [Bemcentinib] + Cc1cc(Nc2cc(N3CCN(C)CC3)nc(Sc3ccc(NC(=O)C4CC4)cc3)n2)n[nH]1 [Tozasertib] (partner 0.1 µM)
The gist of the method:
as §1

Regarding NCI-H650, the relative viability turned out to be 0.947 in assay [1] (first compound 3.162 µM); 0.978 in assay [1] (first compound 10 µM); 0.785 in assay [1] (first compound 31.62 µM); 0.985 in assay [1] (first compound 100 µM); 0.51 in assay [2] (first compound 3.162 µM); 0.582 in assay [2] (first compound 10 µM). Further, the relative viability was 0.489 in assay [2] (first compound 31.62 µM); 0.427 in assay [2] (first compound 100 µM); 0.439 in assay [3] (first compound 3.162 µM); 0.395 in assay [3] (first compound 10 µM); 0.305 in assay [3] (first compound 31.62 µM); 0.399 in assay [3] (first compound 100 µM). Further, the relative viability with Bemcentinib + Tozasertib (first compound 0.04 µM) came out at 0.715; with Bemcentinib + Tozasertib (first compound 0.1265 µM), 0.848; in the assay with Bemcentinib + Tozasertib (first compound 0.4 µM), 0.798; in the assay with Bemcentinib + Tozasertib (first compound 1.265 µM) it was 0.77; with Bemcentinib + Tozasertib (first compound 4 µM), 0.718.
